Values quoted from earlier work, collected in PMC11956011, “An Amazing 30-Year Journey around the DABO Family: A Medicinal Chemistry Lesson on a Versatile Class of Non-nucleoside HIV-1 Reverse Transcriptase Inhibitors” (Journal of Medicinal Chemistry, 2025).
Values after ≈ are worked out from the molar mass of the structure shown. Read-outs that look alike come from different tables or passages of the source.

What was measured:
HIV-1 = conditions: for SI: Fig 10
[1] = test system: E138K HIV-1 mutant strain
[2] = test system: Y181C HIV-1 mutant strain; conditions: for Fold-resistance Y181C (EC50): Fig 10, in brackets
Vero cells = test system: Vero cells; design: method as in doi:10.1016/0223-5234(92)90009-P; conditions: Fig 2
C8166 cells = test system: C8166 cells; design: method as in doi:10.1016/0223-5234(92)90009-P; conditions: Fig 2
mock-infected cells = conditions: for CD50: Fig 4
N119 (Y181C mutant) = conditions: for ED50: HIV-1 119: Fig 4; for Fold-resistance HIV-1 119 (ED50): Fig 4, in parentheses; for EC50: Fig 9
HIV-1IIIB = conditions: for ED50: HIV-1 IIIB: Fig 4
[3] = test system: IRLL98 clinical isolate (K101Q, Y181C, G190A); conditions: Fig 9
Y181I HIV-1 RT = conditions: for Fold-resistance Y181I RT (ID50): Fig 10, in brackets
[4] = test system: HIV-1 RT (WT, recombinant)
HIV-1 NL4-3 wt = conditions: read-out: EC50: NL4-3 wt
[5] = test system: K103N HIV-1 mutant strain; conditions: for Fold-resistance K103N (EC50): Fig 10, in brackets
[6] = test system: Y188L HIV-1 mutant strain
A17 (Y181C+K103N) = conditions: Fig 9
[7] = test system: EFV^R (K103R + V179D + P225H mutant); conditions: Fig 9
L100I HIV-1 RT = conditions: for ID50: L100I: Fig 10; for Fold-resistance L100I RT (ID50): Fig 10, in brackets
[8] = test system: clinical isolates KM018, TC-2, and WAN; conditions: read-out: EC50 against clinical isolates KM018, TC-2, and WAN
[9] = more water-soluble
[10] = rats
HBV = conditions: HBV-infected cells; read-out: HBV DNA IC50
malaria = test system: malaria; design: method as in PMID 31191911
[11] = test system: colon carcinoma HT-29 cells
[12] = test system: non-small-cell lung cancer HOP-92 cells; design: method as in PMID 21849221; conditions: at 10 μM

## CCc1c(Cc2c(F)cccc2Cl)nc(SCC(=O)Nc2ccccc2)[nH]c1=O [A compound similar to 105–108]
HIV-1; read-out: EC50 against wild-type
  EC50: 190 nM
[1]
  EC50: 2030 nM
[2]
  EC50: 2130 nM

## CCCCOc1nc(Cc2ccc(OC)cc2)cc(=O)[nH]1 [compound 5]
Vero cells
  TD50 Vero: 100 µg/mL
C8166 cells
  TD50 C8166: 100 µg/mL

## CCc1c(Cc2cc(C)cc(C)c2)n2c(nc1=O)SCCOC2 [compound 25]
mock-infected cells
  CD50: > 100 µM
N119 (Y181C mutant)
  ED50: HIV-1 119: 19000 nM
  Fold-resistance HIV-1 119 (ED50): 32
HIV-1IIIB
  ED50: HIV-1 IIIB: 600 nM

## CCc1c(Cc2cc(C)cc(C)c2)nc2n(c1=O)COCCS2 [compound 26]
mock-infected cells
  CD50: > 100 µM
N119 (Y181C mutant)
  ED50: HIV-1 119: 6300 nM
  Fold-resistance HIV-1 119 (ED50): 4
HIV-1IIIB
  ED50: HIV-1 IIIB: 1600 nM

## COc1ccc(CSc2nc(Cc3c(Cl)cccc3Cl)c(C)c(=O)[nH]2)cc1 [compound 76]
[3]
  EC50: 47 nM
Y181I HIV-1 RT; Fig 9
  ID50: Y181I: 150000 nM
mock-infected cells; Fig 9
  CC50: 32000 nM
[4]; Fig 9
  ID50: WT: 4 nM
HIV-1 NL4-3 wt; Fig 9
  EC50: 7 nM
[5]; Fig 9
  EC50: 4700 nM
[6]; Fig 9
  EC50: > 32000 nM

## COc1ccc(CCSc2nc(Cc3c(Cl)cccc3Cl)c(C)c(=O)[nH]2)cc1 [compound 77]
[3]
  EC50: 0.22 nM
Y181I HIV-1 RT; Fig 9
  ID50: Y181I: 1500 nM
mock-infected cells; Fig 9
  CC50: > 57000 nM
[4]; Fig 9
  ID50: WT: 26 nM
HIV-1 NL4-3 wt; Fig 9
  EC50: < 0.14 nM
[5]; Fig 9
  EC50: 870 nM
[6]; Fig 9
  EC50: 6900 nM

## COc1ccc(CCCSc2nc(O)c(C)c(Cc3c(Cl)cccc3Cl)n2)cc1 [compound 78]
[3]
  EC50: 110 nM
Y181I HIV-1 RT; Fig 9
  ID50: Y181I: 300 nM
mock-infected cells; Fig 9
  CC50: 1000 nM
[4]; Fig 9
  ID50: WT: 37 nM
HIV-1 NL4-3 wt; Fig 9
  EC50: 0.44 nM
[5]; Fig 9
  EC50: > 1000 nM
[6]; Fig 9
  EC50: > 1000 nM

## COc1ccc(CSc2nc(O)c(C)c(Cc3c(F)cccc3F)n2)cc1 [compound 79]
[3]
  EC50: 690 nM
mock-infected cells; Fig 9
  CC50: > 64000 nM
[4]; Fig 9
  ID50: WT: 7 nM
HIV-1 NL4-3 wt; Fig 9
  EC50: 26 nM
[5]; Fig 9
  EC50: 690 nM
[6]; Fig 9
  EC50: 10000 nM

## Cc1c(O)nc(Sc2ccccc2)nc1Cc1c(F)cccc1F [compound 80]
[3]
  EC50: 16700 nM
Y181I HIV-1 RT; Fig 9
  ID50: Y181I: > 400000 nM
mock-infected cells; Fig 9
  CC50: > 72700 nM
[4]; Fig 9
  ID50: WT: 32000 nM
HIV-1 NL4-3 wt; Fig 9
  EC50: 90 nM
[5]; Fig 9
  EC50: 42500 nM
[6]; Fig 9
  EC50: > 72700 nM

## Cc1c(O)nc(Sc2ccc(Cl)cc2)nc1Cc1c(F)cccc1F [compound 81]
[3]
  EC50: > 66100 nM
Y181I HIV-1 RT; Fig 9
  ID50: Y181I: > 400000 nM
mock-infected cells; Fig 9
  CC50: > 66100 nM
[4]; Fig 9
  ID50: WT: 22000 nM
HIV-1 NL4-3 wt; Fig 9
  EC50: 100 nM
[5]; Fig 9
  EC50: 8010 nM
[6]; Fig 9
  EC50: > 66100 nM

## COc1ccncc1Sc1nc(Cc2c(Cl)cccc2Cl)c(C)c(=O)[nH]1 [compound 82]
[3]
  EC50: 8680 nM
Y181I HIV-1 RT; Fig 9
  ID50: Y181I: > 400000 nM
mock-infected cells; Fig 9
  CC50: > 61300 nM
[4]; Fig 9
  ID50: WT: 3500 nM
HIV-1 NL4-3 wt; Fig 9
  EC50: 2720 nM
[2]; Fig 9
  EC50: 6520 nM
[5]; Fig 9
  EC50: > 61300 nM
[6]; Fig 9
  EC50: > 61300 nM

## Cc1cc(C)cc(Cc2nc(Sc3ccccc3)[nH]c(=O)c2C)c1 [compound 83]
HIV-1; read-out: EC50: HIV-1 wt, Fig 9
  EC50: 1700 nM
mock-infected cells; Fig 9
  CC50: > 100000 nM
N119 (Y181C mutant)
  EC50: 5000 nM
A17 (Y181C+K103N)
  EC50: > 100000 nM
[7]
  EC50: 80000 nM

## COc1cccc(Sc2nc(Cc3cc(C)cc(C)c3)c(C)c(=O)[nH]2)c1 [compound 84]
mock-infected cells; Fig 9
  CC50: > 100000 nM
N119 (Y181C mutant)
  EC50: 2000 nM
A17 (Y181C+K103N)
  EC50: > 100000 nM
[7]
  EC50: 100000 nM

## Cc1cc(C)cc(Cc2nc(Sc3cccnc3)[nH]c(=O)c2C)c1 [compound 85]
N119 (Y181C mutant)
  EC50: 8000 nM
A17 (Y181C+K103N)
  EC50: > 55000 nM
[7]
  EC50: 55000 nM

## Cc1cc(C)cc(Cc2nc(Sc3cccc4ccccc34)[nH]c(=O)c2C)c1 [compound 86]
mock-infected cells; Fig 9
  CC50: > 100000 nM
N119 (Y181C mutant)
  EC50: 5000 nM
A17 (Y181C+K103N)
  EC50: > 100000 nM
[7]
  EC50: 80000 nM

## CCc1c(Cc2c(F)cccc2Cl)nc(SCC(=O)c2ccc(F)cc2)[nH]c1=O [compound 103]
HIV-1
  SI: > 11400
L100I HIV-1 RT
  ID50: L100I: 5600 nM
  Fold-resistance L100I RT (ID50): 170
Y181I HIV-1 RT; Fig 10
  ID50: Y181I: 380 nM
Y181I HIV-1 RT
  Fold-resistance Y181I RT (ID50): 12
mock-infected cells; Fig 10
  CC50: > 57000 nM
[4]; Fig 10
  ID50: WT: 33 nM
HIV-1 NL4-3 wt; Fig 10
  EC50: 5 nM
[2]; Fig 10
  EC50: 1930 nM
[2]
  Fold-resistance Y181C (EC50): 386
[5]; Fig 10
  EC50: 4140 nM
[5]
  Fold-resistance K103N (EC50): 828
[6]; Fig 10
  EC50: > 57000 nM

## CCc1c(Cc2c(F)cccc2F)nc(SCC(=O)c2ccccc2)[nH]c1=O [compound 104]
HIV-1
  SI: 4667
L100I HIV-1 RT
  ID50: L100I: 5400 nM
  Fold-resistance L100I RT (ID50): 126
Y181I HIV-1 RT; Fig 10
  ID50: Y181I: 820 nM
Y181I HIV-1 RT
  Fold-resistance Y181I RT (ID50): 19
mock-infected cells; Fig 10
  CC50: 56000 nM
[4]; Fig 10
  ID50: WT: 43 nM
HIV-1 NL4-3 wt; Fig 10
  EC50: 12 nM
[2]; Fig 10
  EC50: 200 nM
[2]
  Fold-resistance Y181C (EC50): 17
[5]; Fig 10
  EC50: 1300 nM
[5]
  Fold-resistance K103N (EC50): 108
[6]; Fig 10
  EC50: > 56000 nM

## CCc1c(CC2CCCCC2)nc(SCC(=O)c2ccccc2)[nH]c1=O [compound 177]
HIV-1; read-out: EC50 anti-HIV-1 activity, first report, C8166 cells
  EC50: 0.012 nM
HIV-1; read-out: EC50 vs WT HIV-1
  EC50: 200 nM
HIV-1IIIB; read-out: EC50 anti-HIV-1 activity, further studies
  EC50: 2.4 nM
[8]
  EC50: 8.74 to 41.8 nM

## CCc1c(CC2CCCCC2)nc(SCC(=O)c2ccc(OP(=O)(OC)OC)cc2)[nH]c1=O [compound 179]
HIV-1; more potent
  Potency against WT HIV-1 with respect to 177: 20 fold
[9]
  Water solubility with respect to 177: 17 fold
mock-infected cells; more cytotoxic
  Cytotoxicity with respect to 177: 4.5 times

## CCc1c(CC2CCCCC2)nc(SCc2cc(-c3ccc(O)cc3)[nH]n2)[nH]c1=O [compound 180]
[10]
  pharmacokinetic properties and bioavailability (in words): acceptable

## CCc1c(CC2CCCCC2)nc(SCc2cc(-c3ccc(SC)cc3)[nH]n2)[nH]c1=O [compound 181]
[10]
  pharmacokinetic properties and bioavailability (in words): acceptable

## O=c1[nH]c(SC2O[C@H](CO)[C@H](O)[C@@H](O)[C@@H]2O)nc(Cc2ccccc2)c1Cc1ccccc1 (stereo partly shown) [compound 185]
HBV
  IC50: 200 nM

## O=c1[nH]c(SC2OC[C@H](O)[C@@H](O)[C@@H]2O)nc(Cc2ccccc2)c1Cc1ccccc1 (stereo partly shown) [compound 186]
HBV
  IC50: 200 nM

## O=C(CCCCSc1nc(-c2ccc(-c3ccccc3)cc2)cc(=O)[nH]1)NO [compound 195]
malaria
  outcome in in vivo malaria mouse model: failed

## COc1cc(-c2nc(SCC(=O)c3ccc(Cl)cc3)[nH]c(=O)c2C#N)ccc1OCc1ccccc1 [compound 197]
HePG2 cells
  LC50: HePG2: 20.9 µg/mL (≈ 40.3 µM)
Breast cancer MCF7 cells
  LC50: MCF7: 1.9 µg/mL (≈ 3.67 µM)
[11]
  LC50: HT29: 10.1 µg/mL (≈ 19.5 µM)

## N#Cc1c(-c2c(Cl)cccc2Cl)nc(SCC(=O)c2ccc(Br)cc2)[nH]c1=O [compound 199]
[12]
  inhibitory effect toward HOP-92: > 50%

## CCc1c(CC2CCCCC2)nc(SCC(=O)Nc2cc(F)cc(F)c2)[nH]c1=O [compound 211]
ZIKV
  ZIKV EC50 (Vero cells): inactive
